ChEMBL document CHEMBL1145942, “Three-dimensional quantitative structure-activity relationship analyses of peptide substrates of the mammalian H+/peptide cotransporter PEPT1” (J Med Chem, 2003)
Where a SMILES comes first, the peptide text is derived from it. [ ]: non-standard residue; d: D form. The star is where a group is joined. Bip = N[C@@H](Cc1ccc(-c2ccccc2)cc1)C(=O)O; Pip = O=C(O)[C@@H]1CCCCN1; NMeA = CN[C@@H](C)C(=O)O; Nle = CCCC[C@H](N)C(=O)O; Orn = NCCC[C@H](N)C(=O)O; Abu = CC[C@H](N)C(=O)O; Cbz = O=C(OCc1ccccc1)*; Boc = CC(C)(C)OC(=O)*; Aib = CC(C)(N)C(=O)O; Sar = CNCC(=O)O

Target: T1, Solute carrier family 15 member 1 (Homo sapiens, UniProt P46059)
T1 sequence (P46059 whole entry): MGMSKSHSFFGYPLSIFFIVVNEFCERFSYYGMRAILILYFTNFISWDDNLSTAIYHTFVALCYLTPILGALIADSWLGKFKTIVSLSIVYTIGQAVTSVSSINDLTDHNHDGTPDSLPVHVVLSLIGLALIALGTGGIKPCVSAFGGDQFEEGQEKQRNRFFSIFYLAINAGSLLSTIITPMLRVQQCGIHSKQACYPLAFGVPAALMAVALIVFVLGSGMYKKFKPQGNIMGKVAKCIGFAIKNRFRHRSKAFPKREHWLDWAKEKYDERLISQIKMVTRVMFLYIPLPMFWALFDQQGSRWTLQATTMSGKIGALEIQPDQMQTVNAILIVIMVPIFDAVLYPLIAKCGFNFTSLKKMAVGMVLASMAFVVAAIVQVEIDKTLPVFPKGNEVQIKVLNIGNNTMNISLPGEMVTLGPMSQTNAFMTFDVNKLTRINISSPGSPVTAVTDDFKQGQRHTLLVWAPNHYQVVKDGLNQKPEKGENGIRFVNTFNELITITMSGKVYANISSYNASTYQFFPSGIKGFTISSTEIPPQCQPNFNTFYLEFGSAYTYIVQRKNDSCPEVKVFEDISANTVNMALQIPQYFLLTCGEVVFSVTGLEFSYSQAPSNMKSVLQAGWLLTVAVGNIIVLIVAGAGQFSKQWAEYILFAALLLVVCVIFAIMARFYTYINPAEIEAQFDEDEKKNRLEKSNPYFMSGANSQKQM
Experiment: Inhibition constant (Ki) for human intestinal peptide carrier

SMILES | Ki [µM]
CC(N)C(=O)Nc1ccccc1-c1ccccc1 (configuration not stated) | 16600
CC(N)C(=O)N1CCCCC1 (configuration not stated) | 12900
CC(N)C(=O)N1CCSC1 (configuration not stated) | 11000
CC(N)C(=O)Nc1ccccc1 (configuration not stated) | 2900
CC1NC(=O)C(CCCN)NC1=O (configuration not stated) | 2300
CC(N)C(=O)Nc1ccccc1Cl (configuration not stated) | 7800
COC(=O)c1cccc(NC(=O)C(C)N)c1 (configuration not stated) | 6900
Cc1ccc(NC(=O)C(C)N)cc1 (configuration not stated) | 340
Cc1cccc(NC(=O)C(C)N)c1 (configuration not stated) | 410
CC(N)C(=O)Nc1ccc(Cl)cc1 (configuration not stated) | 330
CC1NC(=O)C(CCCCN)NC1=O (configuration not stated) | 5400
COC(=O)c1ccccc1NC(=O)C(C)N (configuration not stated) | 890
CC(N)C(=O)Nc1c(F)c(F)c(F)c(F)c1F (configuration not stated) | 3100
CC(N)C(=O)Nc1cccc(Cl)c1 (configuration not stated) | 460
CC(N)C(=O)NC1CCCCC1 (configuration not stated) | 1500
CC(C)CC(NC(=O)C(O)C(N)Cc1ccccc1)C(=O)O (configuration not stated) | 400
CC(N)C(=O)Nc1cccc(-c2ccccc2)c1 (configuration not stated) | 290
COC(=O)c1ccc(NC(=O)C(C)N)cc1 (configuration not stated) | 1100
CC(N)C(=O)Nc1cccc(C(=O)O)c1 (configuration not stated) | 310
NCCC(=O)NCCC(=O)O | > 30000
CC(NC(=O)CCN)C(=O)O (configuration not stated) | 4800
CC(N)C(=O)NCCS(=O)(=O)O (configuration not stated) | 1200
CC(NC(=O)C(N)Cc1ccc(OCc2ccccc2)cc1)C(=O)O (configuration not stated) | 10
CC(N)C(=O)Nc1ccc(C(=O)O)cc1 (configuration not stated) | 9100
NCCC(=O)NCC(=O)O | 7300
CC(N)C(=O)Nc1ccccc1C(=O)O (configuration not stated) | 2800

SMILES | Ki [µM]
CC(N)C(=O)NCCC(=O)O (configuration not stated) | 2700
CC(NC(=O)[C@H](N)Cc1ccc(OCc2ccccc2)cc1)C(=O)O (some centres not stated) | 1400
C[C@H](NC(=O)[C@@H](N)Cc1ccc(Cc2ccccc2)cc1)C(=O)O | 20
C[C@H](N)C(=O)N[C@@H](Cc1ccc(Cc2ccccc2)cc1)C(=O)O | 120
N[C@@H](Cc1cc2ccccc2[nH]1)C(=O)N1CCC[C@H]1C(=O)O | 130
C[C@H](NC(=O)[C@@H](N)Cc1cc2ccccc2[nH]1)C(=O)O | 160
CN(CC(=O)O)C(=O)[C@@H](N)Cc1ccccc1 | 210
C[C@@H](NC(=O)[C@@H](N)CC(=O)O)C(=O)OCc1ccccc1 | 8300
C[C@H](NC(=O)[C@@H](N)Cc1ccc(O)cc1)C(=O)O | 90
CC(N)C(=O)NCc1ccccc1 (configuration not stated) | 14100
CNCC(=O)N(C)CC(=O)O | 32000
CC(N)C(=S)N1CCCC1C(=O)O (configuration not stated) | 330
CCC(C)C(N)C(=O)N1CCSC1 (configuration not stated) | 6300
C[C@@H](N)C(=O)N1CCC[C@@H]1C(=O)O | > 30000
N[C@@H](CS)C(=O)NCC(=O)O | 200
C[C@H](N)C(=O)N1CCC[C@H]1C(=O)O | 150
CC(N)C(=O)NC(C)C(=O)O (configuration not stated) | 120
CC(C)C[C@H](NC(=O)CN)C(=O)O | 160
CC(NC(=O)CN)C(=O)O (configuration not stated) | 380
CCC(C)C(N)C(=O)N1CCCCC1 (configuration not stated) | 5620
CC(=O)N[C@@H](C)C(=O)N[C@@H](C)C(=O)O (Ac-Ala-Ala-OH) | > 30000
C[C@H](NC(=O)[C@H](C)NC(=O)OC(C)(C)C)C(=O)O (Boc-Ala-Ala-OH) | > 30000
C[C@H](NC(=O)[C@H](C)NC(=O)OCc1ccccc1)C(=O)O (Cbz-Ala-Ala-OH) | 5600
C[C@H](N)C(=O)N[C@@H](CC(=O)O)C(=O)O (H-Ala-Asp-OH) | 260
C[C@H](N)C(=O)N[C@@H](CCC(=O)O)C(=O)O (H-Ala-Glu-OH) | 320
C[C@H](N)C(=O)NCC(=O)O (H-Ala-Gly-OH) | 140

SMILES | Ki [µM]
C[C@H](N)C(=O)N[C@@H](Cc1c[nH]cn1)C(=O)O (H-Ala-His-OH) | 330
C[C@H](N)C(=O)N[C@@H](CO)C(=O)O (H-Ala-Ser-OH) | 140
C[C@H](N)C(=O)N[C@@H](Cc1ccc(O)cc1)C(=O)O (H-Ala-Tyr-OH) | 150
CC[C@H](NC(=O)[C@H](C)N)C(=O)O (H-Ala-[Abu]-OH) | 70
C[C@H](N)C(=O)NC(C)(C)C(=O)O (H-Ala-[Aib]-OH) | 1200
CCCC[C@H](NC(=O)[C@H](C)N)C(=O)O (H-Ala-[Nle]-OH) | 90
C[C@H](N)C(=O)N[C@@H](CCCN)C(=O)O (H-Ala-[Orn]-OH) | 980
C[C@H](N)C(=O)N1CCCC[C@H]1C(=O)O (H-Ala-[Pip]-OH) | 60
C[C@H](N)C(=O)N(C)CC(=O)O (H-Ala-[Sar]-OH) | 250
C[C@H](N)C(=O)N[C@H](C)C(=O)O (H-Ala-[dA]-OH) | 4200
C[C@H](NC(=O)[C@@H](N)CC(=O)O)C(N)=O (H-Asp-Ala-NH2) | 5400
C[C@H](NC(=O)[C@@H](N)CC(=O)O)C(=O)O (H-Asp-Ala-OH) | 320
N[C@@H](CC(=O)O)C(=O)N[C@@H](CC(=O)O)C(=O)O (H-Asp-Asp-OH) | 410
C[C@H](NC(=O)[C@@H](N)CCC(=O)O)C(=O)O (H-Glu-Ala-OH) | 250
N[C@@H](CCC(=O)O)C(=O)N1CCC[C@H]1C(=O)O (H-Glu-Pro-OH) | 140
NCC(=O)N[C@@H](CC(=O)O)C(=O)O (H-Gly-Asp-OH) | 350
NCC(=O)NCC(=O)O (H-Gly-Gly-OH) | 1000
NCC(=O)N[C@@H](Cc1c[nH]cn1)C(=O)O (H-Gly-His-OH) | 1000
C[C@H](NC(=O)[C@@H](N)Cc1c[nH]cn1)C(=O)O (H-His-Ala-OH) | 480
CC(C)C[C@H](N)C(=O)N1CCC[C@H]1C(=O)O (H-Leu-Pro-OH) | 110
N[C@@H](Cc1ccccc1)C(=O)N[C@@H](Cc1ccccc1)C(=O)O (H-Phe-Phe-OH) | 110
N[C@@H](Cc1ccccc1)C(=O)N1CCC[C@H]1C(=O)O (H-Phe-Pro-OH) | 130
C[C@H](NC(=O)[C@@H]1CCCN1)C(=O)O (H-Pro-Ala-OH) | 9500
O=C(O)CC[C@H](NC(=O)[C@@H]1CCCN1)C(=O)O (H-Pro-Glu-OH) | 20000
O=C(O)CNC(=O)[C@@H]1CCCN1 (H-Pro-Gly-OH) | 22000
CC(C)C[C@H](NC(=O)[C@@H]1CCCN1)C(=O)O (H-Pro-Leu-OH) | 470

SMILES | Ki [µM]
O=C(O)[C@H](Cc1ccccc1)NC(=O)[C@@H]1CCCN1 (H-Pro-Phe-OH) | 1900
O=C(O)[C@H](CO)NC(=O)[C@@H]1CCCN1 (H-Pro-Ser-OH) | 14000
O=C(O)[C@H](Cc1ccc(O)cc1)NC(=O)[C@@H]1CCCN1 (H-Pro-Tyr-OH) | 730
C[C@H](NC(=O)[C@@H](N)CO)C(=O)O (H-Ser-Ala-OH) | 140
N[C@@H](CO)C(=O)N1CCC[C@H]1C(=O)O (H-Ser-Pro-OH) | 130
N[C@@H](Cc1ccc(O)cc1)C(=O)N[C@@H](Cc1ccccc1)C(=O)O (H-Tyr-Phe-OH) | 90
N[C@@H](Cc1ccc(O)cc1)C(=O)N1CCC[C@H]1C(=O)O (H-Tyr-Pro-OH) | 160
CC(C)[C@H](N)C(=O)N[C@@H](C)C(=O)O (H-Val-Ala-OH) | 90
CC(C)[C@H](N)C(=O)N1CCC[C@H]1C(=O)O (H-Val-Pro-OH) | 60
CC(C)[C@H](N)C(=O)N[C@@H](Cc1ccc(O)cc1)C(=O)O (H-Val-Tyr-OH) | 100
C[C@H](NC(=O)[C@@H](N)Cc1ccc(-c2ccccc2)cc1)C(=O)O (H-[Bip]-Ala-OH) | 20
CN[C@@H](C)C(=O)N[C@@H](C)C(=O)O (H-[NMeA]-Ala-OH) | 1800
CCCC[C@H](N)C(=O)N[C@@H](C)C(=O)O (H-[Nle]-Ala-OH) | 140
CCCC[C@H](N)C(=O)N1CCC[C@H]1C(=O)O (H-[Nle]-Pro-OH) | 160
CNCC(=O)N1CCC[C@H]1C(=O)O (H-[Sar]-Pro-OH) | 1600
C[C@H](NC(=O)[C@@H](C)N)C(=O)O (H-[dA]-Ala-OH) | 2000
C[C@@H](N)C(=O)N[C@H](C)C(=O)O (H-[dA]-[dA]-OH) | > 30000
C[C@@H](N)C(=O)N1CCC[C@H]1C(=O)O (stereo in doubt; 56) | 4900
C[C@@H](N)C(=O)N1CCC[C@H]1C(=O)O (stereo in doubt; 69) | 15100
NCCCCC(=O)O [5-AMINOVALERIC ACID] | 17400
NCC(=O)CCC(=O)O [AMINOLEVULINIC ACID] | 790
NCC(=O)N1CCC[C@H]1C(=O)O [GLYCYL PROLINE] (H-Gly-Pro-OH) | 300
CN(CC(=O)O)C(=O)CN [GLYCYLSARCOSINE] (H-Gly-[Sar]-OH) | 830
CC(C)C[C@H](N)C(=O)N[C@@H](C)C(=O)O [LEU-ALA] (H-Leu-Ala-OH) | 120
